Biological target: human serum albumin (HSA) (Homo sapiens, UniProt P02768)
Assay: tryptophan fluorescence quenching
Format: binding

human serum albumin (HSA), sequence (P02768 25-609): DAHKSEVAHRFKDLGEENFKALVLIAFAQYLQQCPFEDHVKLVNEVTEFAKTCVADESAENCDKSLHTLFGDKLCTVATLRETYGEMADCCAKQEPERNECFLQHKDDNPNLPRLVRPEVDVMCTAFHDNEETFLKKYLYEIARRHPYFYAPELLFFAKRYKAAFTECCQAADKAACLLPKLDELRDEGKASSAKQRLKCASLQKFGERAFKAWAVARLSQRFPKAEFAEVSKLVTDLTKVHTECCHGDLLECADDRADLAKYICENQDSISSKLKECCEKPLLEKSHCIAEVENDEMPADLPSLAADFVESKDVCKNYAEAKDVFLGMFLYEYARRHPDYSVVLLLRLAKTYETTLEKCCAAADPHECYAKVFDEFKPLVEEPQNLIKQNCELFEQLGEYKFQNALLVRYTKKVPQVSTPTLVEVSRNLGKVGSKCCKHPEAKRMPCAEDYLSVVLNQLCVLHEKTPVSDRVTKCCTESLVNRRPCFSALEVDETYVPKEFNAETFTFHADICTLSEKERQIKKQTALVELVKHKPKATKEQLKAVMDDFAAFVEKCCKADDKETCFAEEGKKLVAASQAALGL

With `C[C@]12CC[C@H]3[C@@H](CCC4=CC(=O)CC[C@@]43C)[C@@H]1CC[C@@H]2O` [testosterone] the Kd was 363 ± 83 µM.
